Assay [1] relates to transgenic PTXD-3 and PTXD-5 lines. Briefly: Growth on liquid growth medium with phosphite or phosphate as phosphorus source. It counts as in vivo, Arabidopsis thaliana. The procedure: Two transgenic Arabidopsis lines, dubbed PTXD-3 and PTXD-5, were prepared and isolated as described in Example 1. Each line is homozygous for the ptxD expression construct of Example 1.
(§1) The parental line and the PTXD-3 and PTXD-5 transgenic lines were tested for the ability to grow on a liquid medium, with or without inorganic phosphate (Pi) as the source of phosphorus. Seeds from the parental and transgenic lines were germinated in liquid media and tested for growth.
(§2) In FIG. 7, the absence or presence of sustained plant growth (beyond the germination stage) is identified with a minus (−) or a plus (+) symbol, respectively. […] Therefore, the transgenic lines acquired the ability to metabolize phosphite as a phosphorus source to support plant growth.

The next assay deals with parental (WT) line Col-0. Described as above. The format is in vivo, Arabidopsis thaliana. The protocol:
as §1, §2

Assay [2] concerns transgenic plants (PTXD-3 and PTXD-5). Description: Reduction of total phosphorus in growth medium containing phosphite (vanadium-molybdate method). The format is in vivo, Arabidopsis thaliana. The settings on record: initially 50, 100 or 1000 μM phosphite; 45 days; 100 plants per container; FIG. 8. The source says: Wild type and the two transgenic Arabidopsis lines, PTXD-3 and PTXD-5, were germinated and cultivated in one-liter plastic containers with 0.1× Murashige and Skoog liquid medium lacking phosphate and supplemented with either 50, 100 or 1000 micromolar phosphorous acid (H3PO3). One hundred plants per plastic container were allowed to grow for 45 days in the plastic container in a growth chamber with a 16:8 light:dark cycle for each 24-hour period. The plants were covered to avoid moisture loss. A double layer of plastic mesh was placed where seeds were sown to germinate on top of liquid media in each plastic container.
After 45 days of growth the total phosphorus content was determined in the liquid media, after removing the plants, using a vanadium-molybdate method. Briefly, 5 mL of liquid media from each sample was digested with nitric acid:perchloric acid (HNO3:HClO4; 5:1). Then, the phosphorus content was determined with a colorimetric method based on the addition of a solution of ammonium molybdate (20 mM) and ammonium metavanadate (10 mM) in 70% perchloric acid. After a 20-minute incubation at room temperature, the absorbance at 400 nm was measured with a spectrophotometer.
In FIG. 8, the first three bars labeled as “initial” represent the initial concentration of total phosphorus in the media without plants. […]

In assay [3] the test system is transgenic tobacco homozygous for the 35S::PtxD gene. Description: Tobacco seedling growth in MS media with phosphate or phosphite as only phosphorus source. It counts as in vivo, Nicotiana tabacum. The settings on record: for seedling growth: MS media, 25 days after germination, FIG. 13. The procedure: (§3) Nicotiana tabacum was transformed with the expression construct described in Example 1. In particular, tobacco leaf explants were co-cultivated with an Agrobacterium strain harboring a 35S::PtxD construct (Example 1) within its T-DNA. Leaf discs were allowed to regenerate in MS media containing 1 mM phosphite as the only phosphorus source. Plants regenerated from these leaf discs on phosphite-containing media were transferred to soil and allowed to set seed under greenhouse conditions.
(§4) The presence or absence of growth (after depletion of seed-furnished phosphorus) is indicated by a plus (+) or a minus (−) symbol, respectively.
(§5) Seedlings were germinated and maintained in MS media supplemented with 1 mM phosphite as the only phosphorus source for 25 days. The seedlings then were transferred to tissue culture flasks containing MS with 1 mM phosphite as the only phosphorus source and were allowed to grow for 25 additional days in a plant growth chamber at 23° C., with a photoperiod of 18 h light, followed by 6 h darkness for each 24-hour period.

Assay [4] relates to control tobacco seedlings. The description is as above. The format is in vivo, Nicotiana tabacum. The protocol: as §3, §4, §5
Another assay concerns ptxD transgenic plants. Description: Growth or selection in media containing only phosphite as external source of phosphorus. The format is in vivo, Arabidopsis thaliana. The procedure: (§6) The transformed Agrobacterium clone was used to transform Arabidopsis thaliana (ecotype Col-0) (generally described herein as “wild-type” (WT)) using a modified floral dip method. Transformed T0 progeny were selected using phosphinothricin resistance. In particular, screening was performed with MS 0.1× media containing phosphinothricin (20 mg/L). Twenty-eight resistant lines were identified through PCR amplification of the ptxD gene.
(§7) The ptxD transgenic plants were tested for their ability to grow in media containing only phosphite (e.g., about 0.1 to 5 mM) as an external source of phosphorus.
The ptxD expression construct also was used to provide a selectable marker for selection of transgenic plants with modified phosphorus metabolism. Wild-type Col-0 plants were transformed using Agrobacterium containing the ptxD expression construct. T0 progeny (seeds) were plated on a medium with phosphite (5 mM) as the source of phosphorus.

A further assay has as its system parental (WT) plants. Description: Growth and dry weight on sand:vermiculite substrate with phosphate or phosphite. It counts as in vivo, Arabidopsis thaliana. The note with it: sand:vermiculite (1:1). The protocol:
(§8) FIGS. 10 and 11 show photographs of parental and ptxD transgenic plants distributed according to FIG. 9 and tested for growth on a substrate containing added phosphate (Pi) (FIG. 10) or phosphite (Phi) (FIG. 11) as the source of phosphorus. […] The plants here and in FIG. 11 were grown in a sand:vermiculite mixture (1:1) and received water and nutrient solutions (lacking any other phosphorus source except as previously indicated) periodically.
(§9) The dry weight of three plants cultivated in sand:vermiculite (1:1) as substrate is plotted in the figure with respect to each particular plant line and source(s) of phosphorus.

The test system of assay [5] is ptxD transgenic (PTXD) plants. The description is as above. It counts as in vivo, Arabidopsis thaliana. The settings on record: sand:vermiculite (1:1). The procedure: as §8, §9
Assay [6] relates to Control plants (wild-type Col-0). Briefly: Growth in media containing only phosphite as external source of phosphorus. It counts as in vivo, Arabidopsis thaliana. The note with it: only phosphite (about 0.1 to 5 mM) as external source of phosphorus. The procedure:
as §6, §7

The mark [7] stands for this setting: 50, 100, and 1000 μM inorganic phosphite as phosphorus source, FIG. 7.
[8] abbreviates: MS with 1 mM phosphite as only phosphorus source, 25 days plus 25 additional days, FIG. 14.
The mark [9] stands for this setting: 50 μM inorganic phosphate, FIG. 7.

We go through two molecules from US10851386B2, “Plants transformed to express a phosphite dehydrogenase enzyme capable of metabolizing phosphite to reduce competition from weeds” (Centro de Investigación y de Estudios Avanzados del …, priority 2008, dated 2020).

Turning to `OP(O)O` [phosphite, phosphorous acid (H3PO3)], the growth entry was “grew efficiently” in assay [1] (setting [7]); “but not the parental line” with parental (WT) line Col-0 (setting [7]); “able to sustain rapid growth” in assay [3] (setting [8]); “grew efficiently” in the assay on ptxD transgenic plants (only phosphite (about 0.1 to 5 mM) as external source of phosphorus); “no substantial growth” in assay [6]. Further, in assay [2], the “decrease of phosphorus content in the media (removal of phosphite)” value is “more than 50%”. In addition, the seedling growth result in assay [3] (1 mM Phi as only phosphorus source) is listed as “sustained growth”; in assay [4] (MS media, 1 mM Phi as only phosphorus source, 25 days after germination, FIG. 13), “unable to sustain normal growth”. Moreover, the growth and development result in assay [4] (setting [8]) is listed as “unable to use phosphite”. The “growth of T0 progeny relative to wild type plants” value with ptxD transgenic plants (medium with phosphite (5 mM) as the source of phosphorus, FIG. 6) is “substantial growth advantage”. For the same molecule, the “sustained growth on substrate” value in the assay on parental (WT) plants (added phosphite (Phi), FIG. 11) is listed as “only the transgenic plants were capable of sustained growth”; in assay [5] (added phosphite (Phi), FIG. 11), “only the transgenic plants were capable of sustained growth”. Also, the “growth (dry weight of three plants)” value in the assay with parental (WT) plants (phosphite as the source of phosphorus, FIG. 12) is “did not grow substantially”. Also, the “growth (dry weight of three plants) on phosphite relative to phosphate” value in assay [5] (FIG. 12) is recorded as “grew similarly or better”.
Consider `O=P(O)(O)O` [phosphate, phosphoric acid (H3PO4)], for which the growth entry in [1] (setting [9]) was “grew efficiently”; in assay [1] (50, 100, and 1000 μM phosphate), “grew efficiently”; in the assay on parental (WT) line Col-0 (setting [9]), “grew efficiently”; with parental (WT) line Col-0 (50, 100, and 1000 μM phosphate), “grew efficiently”. Also, the seedling growth entry in [3] (1 mM Pi as only phosphorus source) is “sustained growth”.
